According to BindingDB's records for patent US20240417410 (Hoffmann-La Roche, 2024):
pKd: −log10 of the molar value.

Target: Peptidyl-prolyl cis-trans isomerase A (Homo sapiens, UniProt P62937)
Assay: CYPA Binding Analysis by Surface Plasmon Resonance (SPR) Assay
Experimental: All SPR experiments were conducted on a Biacore 8K+ instrument (Cytiva). Recombinant biotinylated CYPA protein with a C-terminal AVI tag was purified and immobilized on flow cell 2 of SA chip (Cytiva, BR100531), with the flow cell 1 as the blank reference. The running buffer was HBS-P+ Buffer (Cytiva, BR100827, 0.01 M HEPES pH 7.4,0.15 M NaCl, 0.05% v/v Surfactant P20), and the flow rate was 10 μL/min. The immobilization level was achieved to about 1800 response units (RU). Compounds were 3-fold serially diluted to 1.5-3333 nM using HBS-P+Buffer with a final DMSO concentration of 1.5%, and then loaded to flow through the chip surface at a rate of 30 μL/min with HBS-P+Buffer containing 1.5% DMSO as the running buffer. Experiments were performed at 25° C. The contact time and dissociation time were set to 60 s and 200 s, respectively. After binding and dissociation of each sample, the chip was regenerated using 1 M NaCl with a short contact time of 19 s at a rate of 60 μL/min. The sensorgrams were analyzed using Biacore Insight Evaluation software with 1:1 kinetics binding model to determine the association rate constant (kon), dissociation rate constant (koff) and equilibrium dissociation constant (KD).

Chain of Peptidyl-prolyl cis-trans isomerase A (P62937 whole entry): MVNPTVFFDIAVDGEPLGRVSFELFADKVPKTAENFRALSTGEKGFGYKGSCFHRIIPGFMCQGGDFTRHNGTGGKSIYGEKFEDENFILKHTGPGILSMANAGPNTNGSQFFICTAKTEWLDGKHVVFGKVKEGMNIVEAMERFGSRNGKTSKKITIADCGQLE

pKd: 7.52
SMILES: CCn1c(-c2cc(N3CCN(C)CC3)cnc2[C@H](C)OC)c2c3cc(ccc31)-c1csc(n1)C[C@H](NC(=O)[C@H]1C[C@@H]1C)C(=O)N1CCC[C@H](N1)C(=O)OCC(C)(C)O2 [US20240417410, Example A122]
